What was measured:
Test in all cases: agar disc diffusion assay, inhibition zone
Assay type in all cases: cell-based
[1] = system: Ruegeria sp.; details: 50 μg/disc, 30° C., 24 h; read-out: Inhibition Zone Width
Description: (§1) Antibacterial activity was tested against bacteria using an agar disc diffusion assay method. Sterile paper discs (6 mm i.d.) impregnated with the substance under test at a concentration of 50 μg disc^−1 were applied onto the surface of an agar plate (plastic Petri dish) inoculated with one strain with sterile forceps and gently pressed down to ensure good contact with the surface. Blank discs treated with the same volume of DMSO were added. A control disc, containing streptomycin was used. After the application of discs, the plates were incubated at 30° C. for 24 h, and then the size of the inhibition zone was measured.

[2] = system: Staphylococcus aureus; details: 50 μg/disc, 30° C., 24 h, read-out: Inhibition Zone Width
Description: as §1

[3] = system: Pseudoalteromonas piscida; details: 30° C., 24 h, read-out: Inhibition Zone Width
Description: as §1
as §1, with “using” for “using an”, “assay.” for “assay method.”, “disc” for “disc,”, “h. The” for “h, and then the”, “measured. The results are presented in Table 8 and Table 9 for Cyclo (D)-Pro-(D)-Phe and b3-methyl-N-(2-phenylethyl)butanamide, respectively.” for “measured.”

[4] = system: Vibrio harveyi; details: 30° C., 24 h, read-out: Inhibition Zone Width
Description: as §1
as §1, with “using” for “using an”, “assay.” for “assay method.”, “disc” for “disc,”, “h. The” for “h, and then the”, “measured. The results are presented in Table 8 and Table 9 for Cyclo (D)-Pro-(D)-Phe and b3-methyl-N-(2-phenylethyl)butanamide, respectively.” for “measured.”

[5] = system: Moraxella phenylpyruvica; details: Psychrobacter phenylpyruvicus, 30° C., 24 h, read-out: Inhibition Zone Width
Description: as §1
as §1, with “using” for “using an”, “assay.” for “assay method.”, “disc” for “disc,”, “h. The” for “h, and then the”, “measured. The results are presented in Table 8 and Table 9 for Cyclo (D)-Pro-(D)-Phe and b3-methyl-N-(2-phenylethyl)butanamide, respectively.” for “measured.”

[6] = system: Vibrio fluvialis; details: 30° C., 24 h, read-out: Inhibition Zone Width
Description: as §1
as §1, with “using” for “using an”, “assay.” for “assay method.”, “disc” for “disc,”, “h. The” for “h, and then the”, “measured. The results are presented in Table 8 and Table 9 for Cyclo (D)-Pro-(D)-Phe and b3-methyl-N-(2-phenylethyl)butanamide, respectively.” for “measured.”

[7] = system: Micrococcus luteus; details: 30° C., 24 h, read-out: Inhibition Zone Width
Description: as §1
as §1, with “using” for “using an”, “assay.” for “assay method.”, “disc” for “disc,”, “h. The” for “h, and then the”, “measured. The results are presented in Table 8 and Table 9 for Cyclo (D)-Pro-(D)-Phe and b3-methyl-N-(2-phenylethyl)butanamide, respectively.” for “measured.”

[8] = system: Staphylococcus haemolyticus; details: 30° C., 24 h, read-out: Inhibition Zone Width
Description: as §1
as §1, with “using” for “using an”, “assay.” for “assay method.”, “disc” for “disc,”, “h. The” for “h, and then the”, “measured. The results are presented in Table 8 and Table 9 for Cyclo (D)-Pro-(D)-Phe and b3-methyl-N-(2-phenylethyl)butanamide, respectively.” for “measured.”

[9] = system: Vibrio sp. (NAP-4); details: 30° C., 24 h, read-out: Inhibition Zone Width
Description: as §1
as §1, with “using” for “using an”, “assay.” for “assay method.”, “disc” for “disc,”, “h. The” for “h, and then the”, “measured. The results are presented in Table 8 and Table 9 for Cyclo (D)-Pro-(D)-Phe and b3-methyl-N-(2-phenylethyl)butanamide, respectively.” for “measured.”

[10] = system: Pseudoalteromonas sp.; details: 30° C., 24 h, read-out: Inhibition Zone Width
Description: as §1
as §1, with “using” for “using an”, “assay.” for “assay method.”, “disc” for “disc,”, “h. The” for “h, and then the”, “measured. The results are presented in Table 8 and Table 9 for Cyclo (D)-Pro-(D)-Phe and b3-methyl-N-(2-phenylethyl)butanamide, respectively.” for “measured.”

[11] = system: Shewanella algae; details: 30° C., 24 h, read-out: Inhibition Zone Width
Description: as §1
as §1, with “using” for “using an”, “assay.” for “assay method.”, “disc” for “disc,”, “h. The” for “h, and then the”, “measured. The results are presented in Table 8 and Table 9 for Cyclo (D)-Pro-(D)-Phe and b3-methyl-N-(2-phenylethyl)butanamide, respectively.” for “measured.”

[12] = system: Loktanella hongkongensis; details: Limimaricola hongkongensis; 100 μg (streptomycin control), 30° C., 24 h; read-out: Inhibition Zone Width
Description: as §1, with “using” for “using an”, “assay.” for “assay method.”, “disc” for “disc,”, “h. The” for “h, and then the”, “measured. The results are presented in Table 8 and Table 9 for Cyclo (D)-Pro-(D)-Phe and b3-methyl-N-(2-phenylethyl)butanamide, respectively.” for “measured.”

[13] = system: Vibrio vulnificus; details: 100 μg (streptomycin control), 30° C., 24 h, read-out: Inhibition Zone Width
Description: as §1, with “using” for “using an”, “assay.” for “assay method.”, “disc” for “disc,”, “h. The” for “h, and then the”, “measured. The results are presented in Table 8 and Table 9 for Cyclo (D)-Pro-(D)-Phe and b3-methyl-N-(2-phenylethyl)butanamide, respectively.” for “measured.”

[14] = system: Vibrio alginolyticus; details: 100 μg (streptomycin control), 30° C., 24 h, read-out: Inhibition Zone Width
Description: as §1, with “using” for “using an”, “assay.” for “assay method.”, “disc” for “disc,”, “h. The” for “h, and then the”, “measured. The results are presented in Table 8 and Table 9 for Cyclo (D)-Pro-(D)-Phe and b3-methyl-N-(2-phenylethyl)butanamide, respectively.” for “measured.”

[15] = system: Vibrio halioticoli; details: 100 μg (streptomycin control), 30° C., 24 h, read-out: Inhibition Zone Width
Description: as §1, with “using” for “using an”, “assay.” for “assay method.”, “disc” for “disc,”, “h. The” for “h, and then the”, “measured. The results are presented in Table 8 and Table 9 for Cyclo (D)-Pro-(D)-Phe and b3-methyl-N-(2-phenylethyl)butanamide, respectively.” for “measured.”

[16] = system: Rhodovulum sp.; details: 100 μg (streptomycin control), 30° C., 24 h; read-out: Inhibition Zone Width
Description: as §1, with “using” for “using an”, “assay.” for “assay method.”, “disc” for “disc,”, “h. The” for “h, and then the”, “measured. The results are presented in Table 8 and Table 9 for Cyclo (D)-Pro-(D)-Phe and b3-methyl-N-(2-phenylethyl)butanamide, respectively.” for “measured.”

[17] = system: Vibrio furnissii; details: 100 μg (streptomycin control), 30° C., 24 h, read-out: Inhibition Zone Width
Description: as §1, with “using” for “using an”, “assay.” for “assay method.”, “disc” for “disc,”, “h. The” for “h, and then the”, “measured. The results are presented in Table 8 and Table 9 for Cyclo (D)-Pro-(D)-Phe and b3-methyl-N-(2-phenylethyl)butanamide, respectively.” for “measured.”

Compound `[H]/N=C(/N)N[C@H]1[C@H](O)[C@@H](O)[C@H](O[C@@H]2O[C@@H](C)[C@](O)(C=O)[C@H]2O[C@@H]2O[C@@H](CO)[C@H](O)[C@@H](O)[C@@H]2NC)[C@@H](N/C(N)=N\[H])[C@@H]1O` [Streptomycin, reference compound] has a zone of inhibition at 50 µg/disc [1] of 4.5 mm, a zone of inhibition at 50 µg/disc [2] of 3.5 mm and a zone of inhibition at 50 µg/disc ([3]; 50 μg/disc) of 5 mm. It also gave a zone of inhibition at 100 µg/disc ([3]; 100 μg (streptomycin control)) of 3 ± 1 mm, a zone of inhibition at 50 µg/disc ([4]; 50 μg/disc) of 3 mm and a zone of inhibition at 100 µg/disc ([4]; 100 μg (streptomycin control)) of 6 mm. It also gave a zone of inhibition at 50 µg/disc ([5]; 50 μg/disc) of 0 mm, a zone of inhibition at 100 µg/disc ([5]; 100 μg (streptomycin control)) of 9 mm and a zone of inhibition at 50 µg/disc ([6]; 50 μg/disc) of 4 mm. For the same compound, the zone of inhibition at 100 µg/disc ([6]; 100 μg (streptomycin control)) was 3 mm, the zone of inhibition at 50 µg/disc ([7]; 50 μg/disc) was 6.5 mm and the zone of inhibition at 100 µg/disc ([7]; 100 μg (streptomycin control)) was 6.7 ± 0.6 mm. The zone of inhibition at 50 µg/disc ([8]; 50 μg/disc) was 6 mm, the zone of inhibition at 100 µg/disc ([8]; 100 μg (streptomycin control)) was 3 mm and the zone of inhibition at 50 µg/disc ([9]; 50 μg/disc) was 4 mm. The zone of inhibition at 100 µg/disc ([9]; 100 μg (streptomycin control)) was 5.7 ± 0.6 mm, the zone of inhibition at 50 µg/disc ([10]; 50 μg/disc) was 6 mm and the zone of inhibition at 100 µg/disc ([10]; 100 μg (streptomycin control)) was 4 ± 1 mm. For the same compound, the zone of inhibition at 50 µg/disc ([11]; 50 μg/disc) was 7 mm, the zone of inhibition at 100 µg/disc ([11]; 100 μg (streptomycin control)) was 6.3 ± 1.2 mm and the zone of inhibition at 100 µg/disc [12] was 4 mm. The zone of inhibition at 100 µg/disc [13] was 3.3 ± 0.8 mm, the zone of inhibition at 100 µg/disc [14] was 6.7 ± 2.3 mm and the zone of inhibition at 100 µg/disc [15] was 4.3 ± 0.6 mm. For the same compound, the zone of inhibition at 100 µg/disc [16] was 5.3 ± 1.2 mm and the zone of inhibition at 100 µg/disc [17] was 2.3 ± 0.6 mm.

Reference: patent US8257478B2, “Use of marine fungus originated compounds as antifouling agents” (The Hong Kong University of Science and Technology, priority 2004, dated 2012)
